Reference: patent publication US20100273711A1, “INDIVIDUALIZED CANCER TREATMENTS” (priority 2007, published 2010)
“Also recorded” adds a separate entry of the source.

Experiments:
NCI-H226 = conditions: pemetrexed, cell line NCI-H226; cited from earlier work
NSCLC cell line (H2030) = experiment: Cell proliferation and drug sensitivity assay (MTT colorimetric assay, 96 hrs), H2030; assay type: cell-based
Procedure: Lung and ovarian cancer cell culture. The NSCLC cell lines (H23, H225, H322, H358, H441, H520, A549, H647, H838, H1650, H1651, H1666, H1734, H1793, H1838, H2030 and H2 126) were grown as recommended by the supplier (ATCC, Rockville, Mo.). The ovarian cancer cell lines (OCV AR-3, OVCAR-5, TOV-21G and TOV-1120) were grown as recommended by the supplier (ATCC, Rockville, Mo.). FUOV-1, a human ovarian carcinoma, was grown according to the supplier (DSMZ, Braunschweig, Germany). Ten additional cell lines (C13, OV2008, A2780-CP, A2780S, IGROV-1, T8, IMCC3, 1MCC5, SKOV3 and A200S) were provided by Dr. Patricia Kruk (University of South Florida, Fla.). These ten cell lines were grown in RPMI 1640, supplemented with 10% Fetal Bovine Serum, 1% Sodium pyruvate, and 1% non essential amino acids. Tissue culture media and Thiazolyl Blue Tetrazolium Bromide were purchased from Sigma Aldrich (St. Louis, Mo.). […]
Cell proliferation and Drug sensitivity assays. Optimal cell number and linear range of drug concentration were determined for each cell line and drug as described previously (Bild A, Yao G, Chang S T, et al: Oncogenic pathways signatures in human cancers as guide to targeted therapies. Nature 439(7074):353-357, 2006, Potti A, Dressman H K, Bild A, et al: Genomic signatures to guide the use of chemotherapeutics. Nature Medicine 12(11): 1294-1300, 2006). […]

Nc1nc2[nH]cc(CCc3ccc(C(=O)N[C@@H](CCC(=O)O)C(=O)O)cc3)c2c(=O)[nH]1 [Pemetrexed, pemetrexed]
Resistant (Res) or Sensitive (Sen) (NCI-H226): Sen | sensitivity to subsequent pemetrexed exposure (NSCLC cell line (H2030); H2030 first treated for four days with a taxane (docetaxel or paclitaxel)): resistance to subsequent pemetrexed exposure was induced; also recorded: develops resistance | sensitivity to pemetrexed (NSCLC cell line (H2030); H2030 first treated with pemetrexed): sensitive
